These results are taken from patent US20210113482A1, “Poly (Alkyl Cyanoacrylate) Nanoparticles for Use in Treatment of Cancer” (Sintef TTO AS, priority 2018, published 2021).

Data set [1] relates to MAS98.12 patient derived xenograft (PDX) breast tumor, basal-like. The experiment in a line: Treatment efficacy in mice bearing MAS98.12 patient derived xenograft. Format: in vivo. The method, then:
(§1) Treatment efficacy evaluation in nude mice.
(§2) The ortothopically growing basal-like xenograft model MAS98.12 has been established in house and was used as previously described in Lindholm et al (2012). When using the MDA-MB-231 cell line, 1.5 million cells were injected into the mammary fat pad and growing tumors were used for sequential implantation. As for the MAS98.12 model, 1-2 mm^3 pieces of healthy tumor tissue were implanted bilaterally into the mammary fat pad of female athymic mice. After the tumors reached approximately 5 mm in diameter, the mice were randomly assigned to the different treatment groups (the average volume of each group was 49-57 mm^3).
Statistical analyses. To calculate the significance in the efficacy studies, the area under the curve was calculated for each tumor and the mean values of the groups were compared using the Welch unequal variance. To determine whether there is a significant difference between the frequencies of the tumor regression in the different treatment groups, we used the Fischer's exact test. If not stated otherwise, an unpaired two-sided Student t-test without Welch correction was used. The statistical analyses were performed using either GraphPad Prism (version 7.00 for Windows, GraphPad Software, La Jolla, Calif., US) or Microsoft Excel.
A general note: A xenograft is tissue or cells of one species grown in another, often human tumour cells in immunodeficient mice.

For a further data set, the system named is MDA-MB-231 tumors. The experiment in a line: Treatment efficacy in mice bearing MDA-MB-231 tumors. It is filed as in vivo. Conditions: 2×15 mg CBZ/kg i.v. As for the experimental part:
as §1, §2

Data set [2] is described as follows: Pharmacokinetics in blood: CBZ in plasma by LC-MS/MS in MAS98.12 bearing mice. It is filed as in vivo. Conditions: female, athymic nude foxn1nu, mouse, iv, 15 mg/kg, 15 mg/kg i.v. The method, then: (§3) CBZ quantification by LC-MS/MS. CBZ, as the pure chemical or part of NPs, was quantified by LC-MS/MS, using an Agilent 1290 HPLC system coupled to an Agilent 6490 triple quadrupole mass spectrometer. The HPLC column was an Ascentis Express C8, 75×2.1 mm, 2.7 μm particles size with a 5×2.1 mm guard column of the same material (Sigma), run at 40° C. Eluent A was 25 mM formic acid in water and eluent B was 100% methanol, and flow rate was 0.5 ml/min. The mobile phase gradient was isocratic at 55% B for 1.5 min, then from 55% to 80% B over 1 min, followed by 1 min washout time and subsequently column re-equilibration. Injection volume was 5.00 μl. MS detection was in positive ESI mode (Agilent Jetstream) quantified in multiple reaction monitoring (MRM) mode using the transition m/z 858.3→577.2. The parent ion was chosen to be the Na adduct as this gave the best sensitivity. Similarly, the hexadeuterated internal standard was detected on the 864.4→583.2 transition. Both analytes were run at 380 V fragmentor and 20 V collision energy.
Processing of tissue samples before LC-MS/MS analyses. In order to process the tissue samples such that their CBZ content could be quantified, we developed a protocol for enzymatic digestion of tissue followed by extraction and quantification of CBZ using the LC-MS/MS method described above. […]

Data set [3] can be described thus: Biodistribution: CBZ in tumor and organs by LC-MS/MS in MAS98.12 bearing mice. Format: in vivo. Conditions: 15 mg/kg i.v. The method, then:
as §3
Processing of tissue samples before LC-MS/MS analyses. In order to process the tissue samples such that their CBZ content could be quantified, we developed a protocol for enzymatic digestion of tissue followed by extraction and quantification of CBZ using the LC-MS/MS method described above. The enzyme buffer consisted of Dulbecco's Modified Eagle Medium (DMEM, Thermo Fisher Scientific, USA, 41965039) with 1% (v/v) penicillin-streptomycin stock solution (Sigma-Aldrich, P0781) to a final concentration of 100 U/ml penicillin and 100 μg/ml streptomycin, 0.125 mg/ml papain (Merck, F275644), 2.5 mg/ml trypsin (Sigma-Aldrich, T7409), 0.8 mg/ml collagenase (Sigma-Aldrich, C7926), 0.69 mg/ml hyaluronidase (Sigma-Aldrich, H3506) and 1% (v/v) Triton X-100 (Sigma-Aldrich, T-8787). To determine the biodistribution of CBZ, frozen organs (liver, spleen, lymph nodes, kidneys, tumors) were thawed and freshly prepared enzyme buffer was added at 1 ml per 50 mg tissue; the entire organs were digested. The samples were heated to 37° C. for 72 h with vortexing once a day, until the tissue was completely dissolved. The tissue digests, as well as the plasma samples from the animals, were diluted 10× in acetone before centrifugation; this has the dual effect of both precipitating proteins and other macromolecules, thus cleaning up the sample, and making sure all CBZ is solubilized. Internal standard (hexadeuterated CBZ) dissolved in acetone was added to a final concentration of 10 ng/ml during the acetone dilution to correct for possible matrix effects.
Biodistribution and pharmacokinetics in blood. Blood and tissue samples were obtained following a single i.v. injection of PEBCA-CBZ and non-encapsulated CBZ (15 mg/kg) into the tail vein of mice bearing the MAS98.12 tumor (n=3). Empty particles (PEBCA) and saline were used as negative controls. The blood samples were taken either per tail vein puncture (approximately after 2 min and thereafter at 1, 4 and 24 h after injection) or by terminal cardiac puncture (96 h after injection) in Vacutainer tubes containing EDTA (BD Biosciences, San Jose, Calif., USA) and kept on ice. The 0-24 h samples were collected consecutively from the same animals (n=3) while samples after 96 h were obtained from separate mice (n=3). The blood was centrifuged for 15 min at 4° C. and 3400×g, and the supernatant plasma was collected and stored at −80° C. until LC-MS/MS analysis. […]

The test system of data set [4] is CD68 (whole macrophage population). Briefly: Macrophage infiltration in treated MAS98.12 tumors, immunohistochemistry with anti-CD68. It is filed as in vivo, mice. Conditions: 96 h after single injection; compared to free CBZ or saline; not statistically significant. The method, then:
(§4) Immunohistochemistry. Tumors from MAS98.12 bearing mice were collected 96 h after a single injection of the same substances as were injected in the MAS98.12 efficacy study. The tumors were preserved in 4% (v/v) formalin and then paraffinized and sliced to prepare consecutive slides (3 μm thick). The deparaffinization agent Neo-clear and mounting agent Neo-mount were obtained from VWR (Radnor, Pa., USA). Heat induced epitope retrieval was performed by placing deparaffinized slides with 10 mM sodium citrate buffer (pH 6.0) in water bath for 20 min at 100° C. Endogenous peroxidase activity was blocked by incubating slides with 3% (v/v) hydrogen peroxide in Tris-buffered saline (TBS; 50 mM Tris-Cl, 150 mM NaCl, pH 7.6). Sections were washed and blocking of non-specific binding was performed with 3% (w/v) bovine serum albumin (Roche diagnostics GmbH, Mannheim, Germany) in TBS for 30 min. Sections were then incubated for 60 min with the primary antibodies. […]
(§5) Stained tissue sections were scanned (NanoZoomer HT, Hamamatsu Photonics, Hamamatsu, Japan) using a 40× objective. The extent of CD68, iNOS and CD206 was automatically scored using the ImmunoPath software (Room4 Ltd., Crowborough, UK). […] The annotated representative areas were analyzed further by computerized image analysis. […]

In data set [5] the test system is iNOS (M1, anti-tumorigenic pro-inflammatory macrophages). The experiment in a line: Macrophage infiltration in treated MAS98.12 tumors, immunohistochemistry with anti-iNOS. Format: in vivo, mice. Conditions: 96 h after single injection. As for the experimental part: as §4, §5
Data set [6] relates to CD206 (M2, pro-tumorigenic anti-inflammatory macrophages). The experiment in a line: Macrophage infiltration in treated MAS98.12 tumors, immunohistochemistry with anti-CD206. It is filed as in vivo, mice. Conditions: 96 h after single injection. The method, then: as §4, §5
Data set [7] has as its system MDA-MB-231, MDA-MB-468 and MCF-7 cells. The experiment in a line: In vitro cellular toxicity: MTT cell viability (72 h) and [3H]thymidine incorporation (24 h) in three breast cancer cell lines. As to conditions: MTT assay, 72 h incubation, all cell lines. It is filed as cell-based, human. The method, then: Cell lines. Three breast cancer cell lines were used in this study. The MDA-MB-231 (triple negative; Claudin low), was cultured in RPMI 1640; the MDA-MB-468 (triple negative; basal) and the MCF-7 (luminal A) cell lines were cultured in DMEM. All medium was fortified with 10% (w/v) fetal calf serum albumin (Sigma) and 100 units/ml penicillin/streptomycin (PenStrep®, Sigma). All cell lines were obtained from ATCC and were routinely tested for mycoplasma. Cells growing in 24- or 96-well plates were incubated with serial dilutions of PEBCA-CBZ, CBZ (non-encapsulated CBZ) dissolved in Tween-80 (Fluka)), and PEBCA without CBZ for 24, 48 or 72 h at 37° C. in an atmosphere of 5% CO2. The toxicity was assessed either by the commonly used MTT (3-(4,5-dimethylthiazol-2-yl)-2,5-diphenyltetrazolium bromide) cell viability assay, by measuring cell proliferation based on [^3H]thymidine incorporation, by measuring protein synthesis by incorporation of [^3H]leucine and by measuring ATP levels using CellTiter Glo®.
MTT cell viability assay. […] The absorbance was read in a plate reader (Biosys Ltd, Essex, UK) at 570 nm, and background from absorbance at 650 nm was subtracted.
Cell proliferation measured by [^3H]thymidine incorporation. […] The radioactivity was counted for 1 min in a scintillation counter (Tri-Carb 2100TR, Packard Bioscience, USA).
A general note: Uptake of a labelled nucleoside into DNA is a usual measure of proliferation.

Where two headings read alike, the source gives them in different places.

In general, half-life refers to the time needed for the level to fall by half in the phase considered. Consider `CO[C@H]1C(=O)[C@]2(C)[C@@H](OC)C[C@H]3OC[C@@]3(OC(C)=O)[C@H]2[C@H](OC(=O)c2ccccc2)[C@]2(O)C[C@H](OC(=O)[C@H](O)[C@@H](NC(=O)OC(C)(C)C)c3ccccc3)C(C)=C1C2(C)C` [CBZ, cabazitaxel], for which the Tumor growth result in data set [1] (2×15 mg CBZ/kg i.v. (particle dose 2×175 mg/kg), day 33 and 36) is recorded as “markedly inhibited tumor growth”. For the same compound, the “tumors in complete remission” value in data set [1] (2×15 mg CBZ/kg i.v., non-palpable tumors at day 57 after implantation) is given as 2 out of 9. In the data set with MDA-MB-231 tumors, the Tumor growth entry is given as “a delay in tumor growth was observed” and the “efficacy compared to MAS98.12” value is “less effective”. The half-life in data set [2] (from mean values of the two last time points (24 and 96 h), read-out: elimination half-life (converted)) was around 60 h. Also, the half-life in data set [2] (interpolation of the two first data points (up to 1 hr), read-out: distribution half-life) was around 0.5 h. The “change of CBZ concentration in tissue from 24 to 96 h” value in data set [3] is “significantly lower in tumors after 96 h”. In addition, in data set [3] (24 h), the “CBZ level in tumor relative to the PEBCA-CBZ group” value is reported as “about ⅓” and the “tissue with the highest CBZ amount” value is listed as “the tumor”. Further, the “tissues in which CBZ could be detected (above LOQ)” value in data set [3] (96 h) is reported as “only in the tumor tissue”. In addition, the “CBZ concentration in tumors relative to that after PEBCA-CBZ” value in data set [3] (96 h, difference not significant (p=0.18)) is listed as “approximately 50%”. The “total tumor infiltrating macrophages (CD68)” value in data set [4] was “no response in the macrophage populations”. Further, the “pro-inflammatory M1 macrophages (iNOS) in tumors” value in data set [5] is recorded as “no response in the macrophage populations”. The “anti-inflammatory M2 macrophages (CD206 positive cells) in tumors” value in data set [6] is “no response in the macrophage populations”. Moreover, the “fraction of the cells surviving even very high CBZ concentrations” value in data set [7] is reported as 10-20%.
